From US7759496B2, “Imidazole derivatives having affinity for alpha 2 receptors activity” (Orion Corporation, priority 2002, dated 2010)
Read-outs that look alike come from different tables or passages of the source.

What was measured:
[1] = Chemical stability in phosphate buffer at 37° C.; type: physicochemical
Protocol: An appropriate amount of the test compound (initial concentrations were 0.1-0.4 mM) was dissolved in pre-heated phosphate buffer (0.16 M, μ=0.5, pH 7.4 or pH 5.0). The solution was placed in a thermostated water bath at 37° C. and aliquots were taken at suitable intervals and analyzed by HPLC to determine the degradation rate of the compound. The pseudo-first-order half-life (t1/2) was calculated from the linear slopes of semi-logarithmic plots of remaining compound over time.

serum esterases = assay: Enzymatic hydrolysis in 80% human serum; type: in vitro ADME; conditions: pH 7.4, 37° C., read-out: t1/2 (min) 80% human serum (pH 7.4)
Protocol: To exert the pharmacological effect in the body, a prodrug should be enzymatically degraded to the parent drug. Therefore, the susceptibility of the compounds to serum esterases was evaluated.
An appropriate amount of the test compound was dissolved in one volume (e.g. 1 ml) of phosphate buffer (0.16 M, μ=0.5, pH 7.4) at 37° C. Four volumes (e.g. 4 ml) of pre-heated human serum were added and the solutions were mixed in a water bath at 37° C. (initial concentrations were 0.2-0.5 mM). At suitable intervals, 300 μl aliquots were withdrawn and deproteinated with 600 μl of acetonitrile. After mixing and centrifugation, 600 μl of the supernatant was evaporated to dryness under a stream of air at 40° C. The residue was re-dissolved in 300 μl of the mobile phase and analyzed by HPLC. The pseudo-first-order half-life (t1/2) was calculated from the linear slopes of semi-logarithmic plots of remaining compound over time. Also the formation of the parent drug was determined.

normotensive rabbits = assay: IOP study in rabbits; type: in vivo, rabbit; conditions: for Intraocular pressure (IOP) change: mean ± SE, n = 5-6
Protocol: The IOP lowering effect of the prodrug was also compared to the effect of MPV-2426.
To perform the IOP test, a rabbit was placed in a plastic restraining box located in a quiet room. A single drop (25 μl) of the test solution was instilled unilaterally into its left eye on the upper corneoscleral limbus. During installation, the upper eyelid was pulled slightly away from the globe. IOP was measured using a BioRad (Cambridge, Mass.) Digilab Modular One Pneumatonometer. Before each measurement one or two drops of oxybuprocaine (0.06%) were applied to the cornea before tonometry to eliminate discomfort. The upper and lower eyelids were then gently retracted, and the applanation sensor was brought into contact with the center of the cornea. For each
determination at least two readings were taken from each treated (ipsilateral) and untreated (contralateral) eye, and the mean of these readings was used. IOP of the rabbits was measured at 2, 1, and 0 h before and at 0.5, 1, 2, 3, 4 and 5 h after eyedrop administration. IOP at the time of eyedrop administration (0 h) was used as a baseline value. All studies were set up using a masked and randomized crossover design. At least 72 h washout time was allowed for each rabbit between each dosing. Results

[2] = phosphate buffer pH 5.0, 37° C., read-out: t1/2 (d) phosphate buffer pH 5.0 (converted)
[3] = phosphate buffer pH 7.4, 37° C., read-out: t1/2 (d) phosphate buffer pH 7.4 (converted)
[4] = topical unilateral administration

CC(=O)Oc1ccc2c(c1)C(Cc1c[nH]cn1)CC2.Cl (stereo not drawn) [example 1, 4-(6-Acetoxyindan-1-ylmethyl)-1H-imidazol-1-ium chloride]
half-life [1, 2]: 23 days | half-life [1, 3]: 1.1 days | half-life (serum esterases): 0.18 min

CCCC(=O)Oc1ccc2c(c1)C(Cc1c[nH]cn1)CC2.Cl (stereo not drawn) [example 2, 4-(6-Butyryloxyindan-1-ylmethyl)-1H-imidazol-1-ium chloride]
half-life [1, 2]: 49 days | half-life [1, 3]: 2.5 days | half-life (serum esterases): 0.2 min

Cl.Oc1ccc2c(c1)C(Cc1c[nH]cn1)CC2 (stereo not drawn) [MPV-2426, 4-(6-hydroxyindan-1-ylmethyl)-1H-imidazol-1-ium chloride, reference compound]
Intraocular pressure (IOP) change (normotensive rabbits; treated eye, 2.5 μg, 0 h): 0.0 ± 0.0 mmHg | Intraocular pressure (IOP) change (normotensive rabbits; treated eye, 2.5 μg, 0.5 h): 0.1 ± 1.0 mmHg | Intraocular pressure (IOP) change (normotensive rabbits; treated eye, 2.5 μg, 1 h): −2.6 ± 1.1 mmHg | Intraocular pressure (IOP) change (normotensive rabbits; treated eye, 2.5 μg, 2 h): −3.0 ± 0.7 mmHg | Intraocular pressure (IOP) change (normotensive rabbits; treated eye, 2.5 μg, 3 h): −2.4 ± 0.5 mmHg | Intraocular pressure (IOP) change (normotensive rabbits; treated eye, 2.5 μg, 4 h): −0.4 ± 1.2 mmHg | Intraocular pressure (IOP) change (normotensive rabbits; treated eye, 2.5 μg, 5 h): −0.1 ± 0.8 mmHg | Intraocular pressure (IOP) change (normotensive rabbits; untreated eye, 2.5 μg, 0 h): 0.0 ± 0.0 mmHg | Intraocular pressure (IOP) change (normotensive rabbits; untreated eye, 2.5 μg, 0.5 h): 0.3 ± 1.0 mmHg | Intraocular pressure (IOP) change (normotensive rabbits; untreated eye, 2.5 μg, 1 h): −1.3 ± 0.7 mmHg | Intraocular pressure (IOP) change (normotensive rabbits; untreated eye, 2.5 μg, 2 h): −1.6 ± 0.9 mmHg | Intraocular pressure (IOP) change (normotensive rabbits; untreated eye, 2.5 μg, 3 h): −1.7 ± 0.6 mmHg | Intraocular pressure (IOP) change (normotensive rabbits; untreated eye, 2.5 μg, 4 h): 0.4 ± 1.1 mmHg | Intraocular pressure (IOP) change (normotensive rabbits; untreated eye, 2.5 μg, 5 h): 0.4 ± 1.1 mmHg

CC(C)(C)C(=O)Oc1ccc2c(c1)C(Cc1c[nH]cn1)CC2.Cl (stereo not drawn) [example 3, 4-[6-(2,2-Dimethylpropanoyloxy)indan-1-ylmethyl]-1H-imidazol-1-ium chloride]
IOP lowering potency compared to an equimolar dose of MPV-2426 (normotensive rabbits; [4]): increased IOP lowering potency | duration of action compared to MPV-2426 (normotensive rabbits; [4]): prolonged duration of action | duration of the IOP lowering effect (normotensive rabbits; topical unilateral administration, treated eye): lasted from 1 h through the duration of the 5 h experiment | Intraocular pressure (IOP) change (normotensive rabbits; treated eye, 0.1 μg, 0 h): 0.0 ± 0.0 mmHg | Intraocular pressure (IOP) change (normotensive rabbits; treated eye, 0.1 μg, 0.5 h): 1.7 ± 0.9 mmHg | Intraocular pressure (IOP) change (normotensive rabbits; treated eye, 0.1 μg, 1 h): 0.2 ± 1.3 mmHg | Intraocular pressure (IOP) change (normotensive rabbits; treated eye, 0.1 μg, 2 h): 0.8 ± 1.2 mmHg | Intraocular pressure (IOP) change (normotensive rabbits; treated eye, 0.1 μg, 3 h): 0.6 ± 0.6 mmHg | Intraocular pressure (IOP) change (normotensive rabbits; treated eye, 0.1 μg, 4 h): 1.8 ± 0.5 mmHg | Intraocular pressure (IOP) change (normotensive rabbits; treated eye, 0.1 μg, 5 h): 2.0 ± 0.9 mmHg | Intraocular pressure (IOP) change (normotensive rabbits; treated eye, 1.0 μg, 0 h): 0.0 ± 0.0 mmHg | Intraocular pressure (IOP) change (normotensive rabbits; treated eye, 1.0 μg, 0.5 h): −1.0 ± 0.3 mmHg | Intraocular pressure (IOP) change (normotensive rabbits; treated eye, 1.0 μg, 1 h): −3.6 ± 0.7 mmHg | Intraocular pressure (IOP) change (normotensive rabbits; treated eye, 1.0 μg, 2 h): −4.6 ± 1.4 mmHg | Intraocular pressure (IOP) change (normotensive rabbits; treated eye, 1.0 μg, 3 h): −4.3 ± 1.1 mmHg | Intraocular pressure (IOP) change (normotensive rabbits; treated eye, 1.0 μg, 4 h): −2.0 ± 1.4 mmHg | Intraocular pressure (IOP) change (normotensive rabbits; treated eye, 1.0 μg, 5 h): −0.9 ± 1.8 mmHg | Intraocular pressure (IOP) change (normotensive rabbits; treated eye, 2.5 μg, 0 h): 0.0 ± 0.0 mmHg | Intraocular pressure (IOP) change (normotensive rabbits; treated eye, 2.5 μg, 0.5 h): 0.6 ± 0.9 mmHg | Intraocular pressure (IOP) change (normotensive rabbits; treated eye, 2.5 μg, 1 h): −2.9 ± 1.3 mmHg | Intraocular pressure (IOP) change (normotensive rabbits; treated eye, 2.5 μg, 2 h): −3.3 ± 1.8 mmHg | Intraocular pressure (IOP) change (normotensive rabbits; treated eye, 2.5 μg, 3 h): −1.6 ± 1.7 mmHg | Intraocular pressure (IOP) change (normotensive rabbits; treated eye, 2.5 μg, 4 h): 1.0 ± 2.2 mmHg | Intraocular pressure (IOP) change (normotensive rabbits; treated eye, 2.5 μg, 5 h): 1.3 ± 1.9 mmHg | Intraocular pressure (IOP) change (normotensive rabbits; treated eye, 3.4 μg (equimolar to 2.5 μg of MPV-2426), 0 h): 0.0 ± 0.0 mmHg | Intraocular pressure (IOP) change (normotensive rabbits; treated eye, 3.4 μg (equimolar to 2.5 μg of MPV-2426), 0.5 h): −0.9 ± 0.9 mmHg | Intraocular pressure (IOP) change (normotensive rabbits; treated eye, 3.4 μg (equimolar to 2.5 μg of MPV-2426), 1 h): −2.9 ± 0.5 mmHg | Intraocular pressure (IOP) change (normotensive rabbits; treated eye, 3.4 μg (equimolar to 2.5 μg of MPV-2426), 2 h): −6.5 ± 1.1 mmHg | Intraocular pressure (IOP) change (normotensive rabbits; treated eye, 3.4 μg (equimolar to 2.5 μg of MPV-2426), 3 h): −5.2 ± 1.7 mmHg | Intraocular pressure (IOP) change (normotensive rabbits; treated eye, 3.4 μg (equimolar to 2.5 μg of MPV-2426), 4 h): −3.2 ± 0.9 mmHg | Intraocular pressure (IOP) change (normotensive rabbits; treated eye, 3.4 μg (equimolar to 2.5 μg of MPV-2426), 5 h): −1.4 ± 0.7 mmHg | IOP changes in the untreated eyes (normotensive rabbits; untreated (contralateral) eyes): Less significant changes | Intraocular pressure (IOP) change (normotensive rabbits; untreated eye, 0.1 μg, 0 h): 0.0 ± 0.0 mmHg | Intraocular pressure (IOP) change (normotensive rabbits; untreated eye, 0.1 μg, 0.5 h): 1.4 ± 0.1 mmHg | Intraocular pressure (IOP) change (normotensive rabbits; untreated eye, 0.1 μg, 1 h): 0.9 ± 0.5 mmHg | Intraocular pressure (IOP) change (normotensive rabbits; untreated eye, 0.1 μg, 2 h): 1.3 ± 0.2 mmHg | Intraocular pressure (IOP) change (normotensive rabbits; untreated eye, 0.1 μg, 3 h): 1.3 ± 0.7 mmHg | Intraocular pressure (IOP) change (normotensive rabbits; untreated eye, 0.1 μg, 4 h): 1.0 ± 0.9 mmHg | Intraocular pressure (IOP) change (normotensive rabbits; untreated eye, 0.1 μg, 5 h): 2.4 ± 1.3 mmHg | Intraocular pressure (IOP) change (normotensive rabbits; untreated eye, 1.0 μg, 0 h): 0.0 ± 0.0 mmHg | Intraocular pressure (IOP) change (normotensive rabbits; untreated eye, 1.0 μg, 0.5 h): 0.0 ± 1.4 mmHg | Intraocular pressure (IOP) change (normotensive rabbits; untreated eye, 1.0 μg, 1 h): −2.1 ± 1.2 mmHg | Intraocular pressure (IOP) change (normotensive rabbits; untreated eye, 1.0 μg, 2 h): −2.0 ± 1.8 mmHg | Intraocular pressure (IOP) change (normotensive rabbits; untreated eye, 1.0 μg, 3 h): −0.9 ± 2.4 mmHg | Intraocular pressure (IOP) change (normotensive rabbits; untreated eye, 1.0 μg, 4 h): −1.4 ± 0.7 mmHg | Intraocular pressure (IOP) change (normotensive rabbits; untreated eye, 1.0 μg, 5 h): −0.8 ± 2.1 mmHg | Intraocular pressure (IOP) change (normotensive rabbits; untreated eye, 2.5 μg, 0 h): 0.0 ± 0.0 mmHg | Intraocular pressure (IOP) change (normotensive rabbits; untreated eye, 2.5 μg, 0.5 h): −0.2 ± 0.9 mmHg | Intraocular pressure (IOP) change (normotensive rabbits; untreated eye, 2.5 μg, 1 h): −0.6 ± 0.7 mmHg | Intraocular pressure (IOP) change (normotensive rabbits; untreated eye, 2.5 μg, 2 h): 0.0 ± 1.5 mmHg | Intraocular pressure (IOP) change (normotensive rabbits; untreated eye, 2.5 μg, 3 h): 0.1 ± 1.0 mmHg | Intraocular pressure (IOP) change (normotensive rabbits; untreated eye, 2.5 μg, 4 h): 1.0 ± 1.8 mmHg | Intraocular pressure (IOP) change (normotensive rabbits; untreated eye, 2.5 μg, 5 h): 0.3 ± 1.6 mmHg | Intraocular pressure (IOP) change (normotensive rabbits; untreated eye, 3.4 μg (equimolar to 2.5 μg of MPV-2426), 0 h): 0.0 ± 0.0 mmHg | Intraocular pressure (IOP) change (normotensive rabbits; untreated eye, 3.4 μg (equimolar to 2.5 μg of MPV-2426), 0.5 h): 0.4 ± 0.7 mmHg | Intraocular pressure (IOP) change (normotensive rabbits; untreated eye, 3.4 μg (equimolar to 2.5 μg of MPV-2426), 1 h): −2.7 ± 0.8 mmHg | Intraocular pressure (IOP) change (normotensive rabbits; untreated eye, 3.4 μg (equimolar to 2.5 μg of MPV-2426), 2 h): −1.3 ± 0.6 mmHg | Intraocular pressure (IOP) change (normotensive rabbits; untreated eye, 3.4 μg (equimolar to 2.5 μg of MPV-2426), 3 h): −2.8 ± 0.8 mmHg | Intraocular pressure (IOP) change (normotensive rabbits; untreated eye, 3.4 μg (equimolar to 2.5 μg of MPV-2426), 4 h): −0.8 ± 0.7 mmHg | Intraocular pressure (IOP) change (normotensive rabbits; untreated eye, 3.4 μg (equimolar to 2.5 μg of MPV-2426), 5 h): −0.8 ± 1.0 mmHg | melting point: 176 to 177 °C | half-life [1, 2]: 310 days | half-life [1, 3]: 31 days | half-life (serum esterases): 30 min
